Test results taken from patent publication US20100275276A1, “ZEBRAFISH MODEL FOR ASSESSING GASTROINTESTINAL MOTILITY” (THE RESEARCH FOUNDATION OF STATE UNIVERSITY OF NEW YORK, priority 2006, published 2010).
Where a name gives a salt, the structure may show the parent alone. Read-outs that look alike come from different tables or passages of the source.

Tests used:
zebrafish larvae [1] = experiment: Fluorescent microsphere spectrophotometric assay of propulsive GI motility; type: in vivo; settings: for Reduction of fluorescence intensity: 11 dpf larvae, one day after loading; for Total fluorescence intensity one day after loading: 11 day old larvae, 10^−5 mg/ml, n=5
Excerpt: Gastrointestinal (GI) motility disorders such as constipation and dyspepsia are common, but current treatment options are largely ineffective, primarily due to a limited understanding of GI motility. The broad objective is to develop a new zebrafish-based model system for GI motility. Muscular contractions of the GI tract may be directly observed in a zebrafish larva, and GI motility has been quantified as contraction frequency. […] The specific objective of this project is to develop an assay to specifically measure propulsion of luminal contents. […] A decrease in fluorescence emission would indicate that ingested microspheres have been eliminated via propulsive motility. Fluorescence spectroscopy was used to quantify the fluorescence intensity as a function of time.
Total fluorescence emission averaged 62,630±23,780 counts per sec (n=5 samples, 5 larvae grouped per sample) immediately after ingestion in 11 day old larvae. One day later total fluorescence intensity averaged 53,277±6,333 counts per sec, a 15% decrease (n=5, P<0.05). […] Two prokinetic agents, erythromycin and 5-hydroxytryptamine (10^−5 mg/ml), were used to validate the assay. One day after loading, the total fluorescence intensity decreased after application of erythromycin (69,782±10,423, n=5, P<0.09) and with 5 HT (86,820±21,850, n=5, P<0.003).
After larvae spontaneously ingest the fluorescent micro spheres, which were suspended in the medium that the larvae are in, the larvae were washed and separated into 2 groups. The first group was sacrificed and mashed. The total fluorescence emission was measured from the ‘mashed’ larvae. The second group was sacrificed some time later. If GI motility is functional then some fraction of the micro spheres will have been excreted as a result of GI propulsive motility. The second group was sacrificed and mashed and total fluorescence emission was measured.
The difference between Group 1 and Group 2 represents the fraction of beads that has been excreted and this difference is a measure of functional GI propulsive motility.

zebrafish larvae [2] = experiment: Spatiotemporal mapping of spontaneous GI motility; type: in vivo; settings: 11 dpf larvae treated with 50 μM Gleevec
Excerpt: Spontaneous GI motility occurs at regular intervals and propagates along the GI tract at 11 dpf when ICC are fully present in the GI tract.
This Example uses digital imaging and image processing techniques to quantify coordinated GI motility. […] These types of motility can be distinguished in time-lapse digital images.
This Example uses a technique, spatiotemporal mapping, that converts a series of images into a single image with dimensions of time and distance. This single image supplies data on movement, and therefore propagation contractions can be visualized and quantified.

zebrafish larvae [3] = tested on: zebrafish larvae
[4] = 14 dpf Gleevec treated larvae, Table 1 of Example 8
[5] = 14 dpf Gleevec treated larvae, per 300 second interval, Table 1 of Example 8
[6] = 14 dpf larvae, imatinib mesylate 50 μM added at 5 dpf, n = 3
[7] = imatinib mesylate 50 μM added at 5 dpf

## NCCc1c[nH]c2ccc(O)cc12 [5-hydroxytryptamine]
Zebrafish larvae [1]
  Reduction of fluorescence intensity: 53%
  Total fluorescence intensity one day after loading: 86,820±21,850 counts per sec

## CC[C@H]1OC(=O)[C@H](C)[C@@H](O[C@H]2C[C@@](C)(OC)[C@@H](O)[C@H](C)O2)[C@H](C)[C@@H](O[C@@H]2O[C@H](C)C[C@H](N(C)C)[C@H]2O)[C@](C)(O)C[C@@H](C)C(=O)[C@H](C)[C@@H](O)[C@]1(C)O [erythromycin]
Zebrafish larvae [1]
  Reduction of fluorescence intensity: 23%
  Total fluorescence intensity one day after loading: 69,782±10,423 counts per sec

## Cc1ccc(NC(=O)c2ccc(CN3CCN(C)CC3)cc2)cc1Nc1nccc(-c2cccnc2)n1 [imatinib mesylate]
Zebrafish larvae [2]
  Spontaneous motility (spatiotemporal map): absent
Zebrafish larvae [3]; [4]
  Distance: 399.8 ± 67.2 μm
  Velocity: 10.2 ± 3.1 μm/sec
Zebrafish larvae [3]; [5]
  Total # contractions, Average: 2.3 ± 0.58
  Total # contractions, Total: 7
Zebrafish larvae [3]; [6]
  Distance: 399.8 ± 67.2 μm
  Velocity: 10.2 ± 3.1 μm/sec
Zebrafish larvae [3]; 14 dpf larvae, imatinib mesylate 50 μM added to medium at 5 dpf, n = 3
  Total # contractions/300 sec: 7 contractions/300 sec
Zebrafish larvae [3]; Gleevec treated 14 dpf larvae
  Contractions in treated 14 dpf larvae (description): few contractions which were variable and did not fully propagate
Zebrafish larvae [3]; [7]
  Character of the remaining contractions: unorganized, shorter and slower
  Effect on number of contractions: decrease in the number of contractions
